What was measured:
Type in all cases: cell-based
Details in all cases: 200 ng Fluc mRNA-LNP, 24 hours; Table 4
[1] = system: B16F10 Cell Line; assay: Transfection of B16F10 Cell Line with FLuc mRNA LNPs (ONE-Glo EX luciferase signal)
Description: (§1) mRNA encapsulated lipid nanoparticles (mRNA LNPs) were formulated using microfluidic mixing with a PNI Ignite instrument. Briefly, lipids (ionizable: structural: helper: PEG) were dissolved in ethanol and mixed with and aqueous solution of mRNA. These mRNA-loaded dispersions were then neutralized via a buffer exchange with a pre-determined buffer overnight. Afterwards, formed LNPs were concentrated with Amicon filter centrifugation, filtered, concentration of mRNA determined through a ribogreen assay, and frozen at −80° C. until use.
(§2) Cell lines were grown to confluence in T75 flasks using complete media of DMEM-F12 for AML12 and DMEM for both B16F10 and MC38.K. Cells were plated in a white 96 flat-well plate (AML12=20,000 cells/well, B16F10 and MC38.K=5,000 cells/well) with their respected media. Lipid nanoparticles were first diluted to 50 μg/ml using Opti-MEM and pre-incubated with mouse serum for 30 minutes to give an LNP concentration of 8 μg/ml. Cell media was replaced with Opti-MEM and LNPs were added to cells (200 ng of mRNA-LNP), placed back in the incubator, and allowed to transfect for 24 hours. Afterwards, 100 μl of Promega's ONE-Glo™ EX Luciferase Assay System or Promega's CellTiter-Glo® Luminescent Cell Viability Assay was added and mixed in their respective wells, followed by recording luminescence signals on a Thermo Scientific Varioskan LUX multimode microplate reader. The results are shown in FIG. 1, FIG. 2, FIG. 3, FIG. 4, FIG. 5, FIG. 6, FIG. 10, FIG. 11, and FIG. 21.

[2] = system: AML12 Cell Line; assay: Transfection of AML12 Cell Line with FLuc mRNA LNPs (ONE-Glo EX luciferase signal)
Description: as §1, §2

[3] = system: MC38.K Cell Line; assay: Transfection of MC38.K Cell Line with FLuc mRNA LNPs (ONE-Glo EX luciferase signal)
Description: as §1, §2

| Structure (SMILES) | Total Luciferin Signal (RLU) In Vitro - B16F10 [1] [RLU] | Total Luciferin Signal (RLU) In Vitro - AML12 [2] [RLU] | Total Luciferin Signal (RLU) In Vitro - MC38.K [3] [RLU] |
| --- | --- | --- | --- |
| CCCCCCC(CCCCCCCCF)COC(=O)CCCCCCCN(CCO)CCCCCCC(C)C(=O)OCCCCCCCCC(C)C (stereo not drawn) [Compound 73, 9-methyldecyl 8-((8-((10-fluoro-2-hexyldecyl)oxy)-8-oxooctyl)(2-hydroxyethyl)amino)-2-methyloctanoate] | 7.08E+06 | 2.93E+06 | 1.77E+07 |
| CCCCCCCCCOC(=O)C(C)CCCCCCN(CCO)CCCCCCCCOC(=O)C(CCCC)CCCCCCF (stereo not drawn) [Compound 74, 8-((2-hydroxyethyl)(7-methyl-8-(nonyloxy)-8-oxooctyl)amino)octyl 2-butyl-8-fluorooctanoate] | 6.66E+04 | 2.80E+04 | 1.94E+05 |
| CCCCCCCCC(CCCCCCCCF)OC(=O)CCCCCCCN(CCCCCCC(C)C(=O)OCCCCCCCCC(C)C)CC(C)CO (stereo not drawn) [Compound 75, 9-methyldecyl 8-((8-((1-fluoroheptadecan-9-yl)oxy)-8-oxooctyl)(3-hydroxy-2-methylpropyl)amino)-2-methyloctanoate] | 2.15E+04 | 1.59E+04 | 4.51E+04 |
| CCCCCCCCCOC(=O)C(C)CCCCCCN(CCCCO)CCCCCCCCOC(=O)C(CCCC)CCCCCCF (stereo not drawn) [Compound 76, 8-((4-hydroxybutyl)(7-methyl-8-(nonyloxy)-8-oxooctyl)amino)octyl 2-butyl-8-fluorooctanoate] | 7.14E+04 | 3.79E+04 | 2.38E+05 |
| CCCCCCCCCOC(=O)CCCCCCCN(CCCCO)CCCCCCCC(=O)OCC(CCCCCCCC)CCCCCCCCF (stereo not drawn) [Compound 77, 10-fluoro-2-octyldecyl 8-((4-hydroxybutyl)(8-(nonyloxy)-8-oxooctyl)amino)octanoate] | 7.80E+06 | 5.38E+06 | 3.24E+07 |
| CCCCCCCCCOC(=O)C(C)CCCCCCN(CCO)CCCCCCCC(=O)OCC(CCCCCC)CCCCCCCCF (stereo not drawn) [Compound 78, nonyl 8-((8-((10-fluoro-2-hexyldecyl)oxy)-8-oxooctyl)(2-hydroxyethyl)amino)-2-methyloctanoate] | 6.65E+06 | 2.42E+06 | 2.21E+07 |
| CCCCC(CCCCCCF)C(=O)OCCCCCCCCN(CCO)CCCCCCC(C)C(=O)OCCCCCCCCC(C)C (stereo not drawn) [Compound 79, 8-((2-hydroxyethyl)(7-methyl-8-((9-methyldecyl)oxy)-8-oxooctyl)amino)octyl 2-butyl-8-fluorooctanoate] | 1.84E+06 | 7.26E+05 | 1.65E+07 |
| CCCCCCCCCOC(=O)CCCCCCCN(CCO)CCCCCCCC(=O)OCC(CCCCCCCC)CCCCCCCCF (stereo not drawn) [Compound 80, 10-fluoro-2-octyldecyl 8-((2-hydroxyethyl)(8-(nonyloxy)-8-oxooctyl)amino)octanoate] | 2.97E+06 | 3.01E+06 | 1.95E+07 |
| CCCCCCCCCOC(=O)CCCCCCCN(CCCCO)CCCCCCCCOC(=O)C(CCCC)CCCCCCF (stereo not drawn) [Compound 81, 8-((4-hydroxybutyl)(8-(nonyloxy)-8-oxooctyl)amino)octyl 2-butyl-8-fluorooctanoate] | 5.85E+04 | 4.91E+04 | 2.47E+06 |
| CCCCCCCCCOC(=O)CCCCCCCN(CCO)CCCCCCCCOC(=O)C(CCCC)CCCCCCF (stereo not drawn) [Compound 82, 8-((2-hydroxyethyl)(8-(nonyloxy)-8-oxooctyl)amino)octyl 2-butyl-8-fluorooctanoate] | 1.70E+04 | 1.48E+04 | 6.18E+04 |
| CCCCCCCCCOC(=O)CCCCCCCN(CCO)CCCCCCCC(=O)OC(CCCCCCCC)CCCCCCCCCl (stereo not drawn) [Compound 83, 1-chloroheptadecan-9-yl 8-((2-hydroxyethyl)(8-(nonyloxy)-8-oxooctyl)amino)octanoate] | 4.41E+05 | 1.85E+05 | 2.14E+06 |
| CCCCCCCCCOC(=O)CCCCCCCN(CCO)CCCCCCCC(=O)OC(CCCCCCCF)CCCCCCCF [Compound 84, 1,15-difluoropentadecan-8-yl 8-((2-hydroxyethyl)(8-(nonyloxy)-8-oxooctyl)amino)octanoate] | 8.32E+04 | 5.18E+04 | 5.52E+05 |
| CCCCCCCCCOC(=O)C(C)CCCCCCN(CCCCO)CCCCCCCC(=O)OCC(CCCCCC)CCCCCCCCF (stereo not drawn) [Compound 85, nonyl 8-((8-((10-fluoro-2-hexyldecyl)oxy)-8-oxooctyl)(4-hydroxybutyl)amino)-2-methyloctanoate] | 1.03E+07 | 7.47E+06 | 6.32E+07 |
| CCCCCCC(CCCCCCCCF)COC(=O)CCCCCCCN(CCCCO)CCCCCCC(C)C(=O)OCCCCCCCCC(C)C (stereo not drawn) [Compound 86, 9-methyldecyl 8-((8-((10-fluoro-2-hexyldecyl)oxy)-8-oxooctyl)(4-hydroxybutyl)amino)-2-methyloctanoate] | 7.58E+06 | 3.99E+06 | 3.80E+07 |
| CCCCCCCCC(CCCCCCCCF)C(=O)OCCCCCCCN(CCO)CCCCCCCOC(=O)C(C)CCCCCCCC(C)C (stereo not drawn) [Compound 87, 7-((7-((10-fluoro-2-octyldecanoyl)oxy)heptyl)(2-hydroxyethyl)amino)heptyl 2,10-dimethylundecanoate] | 3.16E+06 | 1.52E+06 | 6.61E+06 |
| CCCCC(CCCCCCF)C(=O)OCCCCCCCCN(CCCCO)CCCCCCC(C)C(=O)OCCCCCCCCC(C)C (stereo not drawn) [Compound 88, 8-((4-hydroxybutyl)(7-methyl-8-((9-methyldecyl)oxy)-8-oxooctyl)amino)octyl 2-butyl-8-fluorooctanoate] | 9.41E+05 | 3.65E+05 | 1.24E+07 |
| CCCCCCCCC(CCCCCCCCF)C(=O)OCCCCCCCN(CCCCO)CCCCCCCOC(=O)C(C)CCCCCCCC(C)C (stereo not drawn) [Compound 89, 7-((7-((10-fluoro-2-octyldecanoyl)oxy)heptyl)(4-hydroxybutyl)amino)heptyl 2,10-dimethylundecanoate] | 9.61E+06 | 7.66E+06 | 3.88E+07 |

Source: patent US20260116845A1, “LIPIDS AND COMPOSITIONS THEREOF” (Kernal Biologics, Inc., priority 2023, published 2026)
